The results in this text go back to ChEMBL document CHEMBL1134884, “Novel indolo[2,1-b]quinazoline analogues as cytostatic agents: synthesis, biological evaluation and structure-activity relationship” (Bioorg Med Chem Lett, 2002).

Common to all, as to type: functional
The subject of one assay is SK-OV-3. The experiment in a line: Tested for in vitro cytotoxic activity against ovarian SKOV3 human cancer cell lines.
Another assay has as its system M14. Nature of the assay: Tested for in vitro cytotoxic activity against melanoma M14 human cancer cell lines.
In another assay the test system is NCI-H522. Nature of the assay: Tested for in vitro cytotoxic activity against lung H522 human cancer cell lines.
Another assay has as its system U-251. The experiment in a line: Tested for in vitro cytotoxic activity against CNS U251 human cancer cell lines.
A further assay has as its system DU-145. Nature of the assay: Tested for in vitro cytotoxic activity against prostate DU145 human cancer cell lines.
In the next assay the test system is NCI/ADR-RES. Nature of the assay: Tested for in vitro cytotoxic activity against breast MCF-7/ADR human cancer cell lines.
The next assay deals with A498. The experiment in a line: Tested for in vitro cytotoxic activity against renal A498 human cancer cell lines.
A further assay has as its system SW-620. The experiment in a line: Tested for in vitro cytotoxic activity against colon SW620 human cancer cell lines.

Where only a bound is given, the exact number is not on record here.

Take `CN1CCN(CC(=O)Nc2ccc3c(c2)C(=O)c2nc4ccccc4c(=O)n2-3)CC1`: the GI50 with SK-OV-3 is 6 µM; with M14 it was 8 µM; in the assay on NCI-H522, 15 µM; with U-251, more than 100 µM; in the assay on DU-145, 10 µM; in the assay on NCI/ADR-RES it was 20 µM. Further, the results for the GI50 in the assay on A498 and with SW-620 were 20 µM and 10 µM, respectively.
On to `CN(C)CCO/N=C1\c2cc(Br)ccc2-n2c1nc1ccccc1c2=O`, for which the GI50 turned out to be 3 µM in the assay on SK-OV-3; 2 µM in the assay on M14; 2 µM with NCI-H522; 0.45 µM with U-251; 0.2 µM in the assay on DU-145; 0.06 µM with NCI/ADR-RES. For the same compound, the results for the GI50 with A498 and in the assay on SW-620 were 1.5 µM and 3 µM, respectively.
As to `O=c1c2ccccc2nc2n1-c1ccc([N+](=O)[O-])cc1/C2=N\OCCO`, the GI50 in the assay with SK-OV-3 worked out at 2 µM; in the assay on M14, 2 µM; in the assay with NCI-H522, 0.7 µM; in the assay with U-251 it was 0.8 µM; with DU-145, 2.5 µM; in the assay on NCI/ADR-RES, 0.4 µM. Also, the GI50 in the assay on A498 stood at 0.6 µM; with SW-620, 0.75 µM.
As for `COC(=O)CO/N=C1\c2ccccc2-n2c1nc1ccccc1c2=O`, the GI50 with SK-OV-3 is 50 µM; in the assay with M14, 40 µM; in the assay with NCI-H522 it was 80 µM; in the assay with U-251, more than 100 µM; with DU-145, 30 µM; in the assay with NCI/ADR-RES, 0.01 µM. The GI50 in the assay with A498 and in the assay on SW-620 was more than 100 µM in each case.
Regarding `CC(=O)Nc1ccc2c(c1)C(=O)c1nc3ccccc3c(=O)n1-2`, the concentration for 50% growth inhibition (GI50) in the assay with SK-OV-3 is 20 µM; in the assay with M14, 10 µM; in the assay on NCI-H522 it was 5 µM; with U-251, 20 µM; with DU-145, 0.5 µM; in the assay on NCI/ADR-RES it was 0.4 µM. Further, the figures for the GI50 with A498 and in the assay with SW-620 were 0.4 µM and 30 µM, respectively.
With `O=C1c2cc3c(cc2-n2c1nc1ccccc1c2=O)OCO3`, the 50% growth inhibitory concentration (GI50) in the assay on SK-OV-3, in the assay on M14, in the assay on NCI-H522, in the assay on U-251, with DU-145 and with NCI/ADR-RES was more than 100 µM each time. For the same compound, the 50% growth inhibitory concentration (GI50) with A498 and in the assay on SW-620 was more than 100 µM each time.
Consider `O=c1c2ccccc2nc2n1-c1ccc(Br)cc1/C2=N\OCCN1CCCCC1`, for which the GI50 in the assay with SK-OV-3 came to 1 µM; with M14, 2.5 µM; in the assay with NCI-H522, 2 µM; with U-251, 0.095 µM; in the assay on DU-145, 0.55 µM; with NCI/ADR-RES, 0.3 µM. The GI50 stood at 2 µM in the assay with A498 and 3 µM in the assay on SW-620.
On to `O=C(CCl)Nc1ccc2c(c1)C(=O)c1nc3ccccc3c(=O)n1-2`, for which the GI50 in the assay on SK-OV-3 is 0.05 µM; in the assay with M14, 0.9 µM; with NCI-H522, 4 µM; with U-251, 0.2 µM; with DU-145, 0.25 µM; in the assay with NCI/ADR-RES, 0.06 µM. Further, the GI50 was 0.4 µM in the assay on A498 and 0.6 µM in the assay with SW-620.
Consider `O=C1c2ccccc2-n2c1nc1ccc(Br)cc1c2=O`, for which the 50% growth inhibitory concentration (GI50) with SK-OV-3, with M14, in the assay with NCI-H522, in the assay on U-251, with DU-145 and in the assay on NCI/ADR-RES was more than 100 µM throughout. In addition, the GI50 with A498 and with SW-620 was more than 100 µM throughout.
On to `COc1ccc2c(c1)C(=O)c1nc3ccccc3c(=O)n1-2`, for which the GI50 in the assay on SK-OV-3, in the assay with M14, with NCI-H522, with U-251, with DU-145 and in the assay on NCI/ADR-RES was more than 100 µM throughout. For the same compound, the GI50 with A498 and in the assay on SW-620 was more than 100 µM throughout.
`O=C(CO/N=C1\c2ccccc2-n2c1nc1ccccc1c2=O)Nc1ccccn1`: the GI50 with SK-OV-3 came out at 52 µM; with M14, 95 µM; in the assay on NCI-H522 it was 25 µM; with U-251 it was 8.5 µM; in the assay on DU-145 it was 10 µM; with NCI/ADR-RES, 8 µM. For the same compound, the figures for the GI50 in the assay on A498 and in the assay on SW-620 were 20 µM and more than 100 µM, respectively.
